Results as given in publication PMC7901654, “Bioisosteric Discovery of NPA101.3, a Second-Generation RET/VEGFR2 Inhibitor Optimized for Single-Agent Polypharmacology” (Journal of Medicinal Chemistry, 2020).

Assays:
Test in all cases: KinomeScan panel screen
Assay type in all cases: binding
[1] = target: T1, AURKB (Homo sapiens, UniProt Q96GD4); details: 100 nM, read-out: Percent Control
T1 construct: purchased DiscoveRx KINOMEscan (TRKA and CSF1R IC50 enzymes from Invitrogen)

[2] = target: T2, CTK (Homo sapiens, UniProt P42679); details: 100 nM, read-out: Percent Control
T2 construct: purchased DiscoveRx KINOMEscan (TRKA and CSF1R IC50 enzymes from Invitrogen)

[3] = target: T3, ERK1 (Homo sapiens, UniProt P27361); details: ERK1, 100 nM; read-out: Percent Control
T3 construct: purchased DiscoveRx KINOMEscan (TRKA and CSF1R IC50 enzymes from Invitrogen)
T3 sequence (P27361 whole entry): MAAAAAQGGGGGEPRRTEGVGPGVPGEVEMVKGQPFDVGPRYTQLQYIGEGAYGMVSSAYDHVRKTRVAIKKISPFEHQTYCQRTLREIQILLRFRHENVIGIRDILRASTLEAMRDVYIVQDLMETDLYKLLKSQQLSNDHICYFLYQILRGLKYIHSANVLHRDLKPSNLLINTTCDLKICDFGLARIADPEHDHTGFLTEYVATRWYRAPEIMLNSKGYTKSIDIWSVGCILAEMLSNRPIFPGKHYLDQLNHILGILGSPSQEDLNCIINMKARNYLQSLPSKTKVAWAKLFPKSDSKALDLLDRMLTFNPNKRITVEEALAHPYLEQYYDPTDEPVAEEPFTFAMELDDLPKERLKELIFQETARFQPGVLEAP

[4] = target: T4, FAK (Homo sapiens, UniProt Q05397); details: 100 nM, read-out: Percent Control
T4 construct: purchased DiscoveRx KINOMEscan (TRKA and CSF1R IC50 enzymes from Invitrogen)

[5] = target: T5, FGFR3 (Homo sapiens, UniProt P22607); details: FGFR3, 100 nM; read-out: Percent Control
T5 construct: purchased DiscoveRx KINOMEscan (TRKA and CSF1R IC50 enzymes from Invitrogen)
T5 sequence (P22607 23-806): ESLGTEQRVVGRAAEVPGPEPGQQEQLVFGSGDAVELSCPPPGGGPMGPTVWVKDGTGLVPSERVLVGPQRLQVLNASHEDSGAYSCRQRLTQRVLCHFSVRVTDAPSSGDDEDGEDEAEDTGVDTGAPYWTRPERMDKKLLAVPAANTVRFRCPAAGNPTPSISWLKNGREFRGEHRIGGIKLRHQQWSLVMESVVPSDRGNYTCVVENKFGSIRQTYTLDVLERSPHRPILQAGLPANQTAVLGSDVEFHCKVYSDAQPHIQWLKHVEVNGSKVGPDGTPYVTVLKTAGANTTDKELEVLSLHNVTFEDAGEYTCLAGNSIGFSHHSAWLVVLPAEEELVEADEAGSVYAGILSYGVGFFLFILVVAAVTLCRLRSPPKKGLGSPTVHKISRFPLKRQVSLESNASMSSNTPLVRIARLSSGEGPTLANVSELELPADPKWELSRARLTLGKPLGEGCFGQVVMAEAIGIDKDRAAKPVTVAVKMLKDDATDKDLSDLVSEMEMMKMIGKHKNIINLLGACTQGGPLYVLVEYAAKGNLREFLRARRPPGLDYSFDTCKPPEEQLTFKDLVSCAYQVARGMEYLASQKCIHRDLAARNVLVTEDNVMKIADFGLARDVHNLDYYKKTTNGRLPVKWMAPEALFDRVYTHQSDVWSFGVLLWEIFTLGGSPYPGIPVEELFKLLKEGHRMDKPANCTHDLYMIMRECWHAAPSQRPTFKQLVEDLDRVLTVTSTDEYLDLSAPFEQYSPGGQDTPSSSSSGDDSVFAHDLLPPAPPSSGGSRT

[6] = target: T6, HCK (Homo sapiens, UniProt P08631); details: 100 nM
T6 construct: purchased DiscoveRx KINOMEscan (TRKA and CSF1R IC50 enzymes from Invitrogen)
T6 sequence (P08631 whole entry): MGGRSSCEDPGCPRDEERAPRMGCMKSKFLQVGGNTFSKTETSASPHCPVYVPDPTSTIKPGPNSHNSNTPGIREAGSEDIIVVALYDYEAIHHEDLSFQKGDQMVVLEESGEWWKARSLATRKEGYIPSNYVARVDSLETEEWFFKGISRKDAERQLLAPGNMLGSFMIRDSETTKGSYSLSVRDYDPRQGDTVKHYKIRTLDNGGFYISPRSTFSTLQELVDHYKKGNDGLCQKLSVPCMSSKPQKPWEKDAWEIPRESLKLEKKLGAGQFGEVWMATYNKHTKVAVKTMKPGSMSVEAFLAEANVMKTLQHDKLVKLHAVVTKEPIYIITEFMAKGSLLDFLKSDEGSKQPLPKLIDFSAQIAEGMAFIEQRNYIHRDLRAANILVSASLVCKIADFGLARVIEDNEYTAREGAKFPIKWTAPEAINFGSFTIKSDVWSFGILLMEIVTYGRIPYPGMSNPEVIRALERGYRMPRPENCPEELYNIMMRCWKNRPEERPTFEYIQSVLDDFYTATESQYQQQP

[7] = target: T7, IGF1R (Homo sapiens, UniProt P08069); details: 100 nM, read-out: Percent Control
T7 construct: purchased DiscoveRx KINOMEscan (TRKA and CSF1R IC50 enzymes from Invitrogen)

[8] = target: T8, IKK-beta (Homo sapiens, UniProt O14920); details: 100 nM, read-out: Percent Control
T8 construct: purchased DiscoveRx KINOMEscan (TRKA and CSF1R IC50 enzymes from Invitrogen)
T8 sequence (O14920 whole entry): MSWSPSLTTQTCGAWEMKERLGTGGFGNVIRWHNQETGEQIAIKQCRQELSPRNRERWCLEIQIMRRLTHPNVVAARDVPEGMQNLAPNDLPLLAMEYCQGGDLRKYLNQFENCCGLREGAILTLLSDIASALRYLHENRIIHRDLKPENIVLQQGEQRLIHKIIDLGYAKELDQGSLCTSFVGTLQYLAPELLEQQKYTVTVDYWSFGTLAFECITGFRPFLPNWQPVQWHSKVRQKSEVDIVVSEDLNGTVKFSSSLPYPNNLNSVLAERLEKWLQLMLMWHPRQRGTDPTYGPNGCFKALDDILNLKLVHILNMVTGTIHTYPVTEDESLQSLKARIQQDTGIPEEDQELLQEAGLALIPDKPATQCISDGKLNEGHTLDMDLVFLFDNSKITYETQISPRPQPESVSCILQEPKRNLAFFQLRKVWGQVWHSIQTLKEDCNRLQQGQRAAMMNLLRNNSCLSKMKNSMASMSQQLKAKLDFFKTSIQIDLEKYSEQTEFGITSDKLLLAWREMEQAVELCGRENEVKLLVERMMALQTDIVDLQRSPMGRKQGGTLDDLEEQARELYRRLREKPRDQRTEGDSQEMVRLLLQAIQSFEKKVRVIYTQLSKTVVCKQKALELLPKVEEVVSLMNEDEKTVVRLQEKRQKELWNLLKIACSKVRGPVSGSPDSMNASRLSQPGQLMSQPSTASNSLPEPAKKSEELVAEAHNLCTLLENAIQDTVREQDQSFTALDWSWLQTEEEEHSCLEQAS

[9] = target: T9, JNK2 (Homo sapiens, UniProt P45984); details: JNK2, 100 nM; read-out: Percent Control
T9 construct: purchased DiscoveRx KINOMEscan (TRKA and CSF1R IC50 enzymes from Invitrogen)
T9 sequence (P45984 whole entry): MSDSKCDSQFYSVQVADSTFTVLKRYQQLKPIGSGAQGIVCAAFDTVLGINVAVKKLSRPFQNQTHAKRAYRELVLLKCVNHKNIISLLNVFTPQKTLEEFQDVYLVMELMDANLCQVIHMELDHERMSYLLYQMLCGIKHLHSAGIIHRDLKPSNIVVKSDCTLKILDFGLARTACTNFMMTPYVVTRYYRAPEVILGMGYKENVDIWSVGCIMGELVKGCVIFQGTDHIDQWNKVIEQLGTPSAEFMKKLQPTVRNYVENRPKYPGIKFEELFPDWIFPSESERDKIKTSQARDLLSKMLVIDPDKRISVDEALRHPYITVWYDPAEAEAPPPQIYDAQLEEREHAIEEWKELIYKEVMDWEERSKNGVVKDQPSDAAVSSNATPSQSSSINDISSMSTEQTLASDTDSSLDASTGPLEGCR

[10] = target: T10, LKB1 (Homo sapiens, UniProt Q15831); details: LKB1, 100 nM; read-out: Percent Control
T10 construct: purchased DiscoveRx KINOMEscan (TRKA and CSF1R IC50 enzymes from Invitrogen)
T10 sequence (Q15831 whole entry): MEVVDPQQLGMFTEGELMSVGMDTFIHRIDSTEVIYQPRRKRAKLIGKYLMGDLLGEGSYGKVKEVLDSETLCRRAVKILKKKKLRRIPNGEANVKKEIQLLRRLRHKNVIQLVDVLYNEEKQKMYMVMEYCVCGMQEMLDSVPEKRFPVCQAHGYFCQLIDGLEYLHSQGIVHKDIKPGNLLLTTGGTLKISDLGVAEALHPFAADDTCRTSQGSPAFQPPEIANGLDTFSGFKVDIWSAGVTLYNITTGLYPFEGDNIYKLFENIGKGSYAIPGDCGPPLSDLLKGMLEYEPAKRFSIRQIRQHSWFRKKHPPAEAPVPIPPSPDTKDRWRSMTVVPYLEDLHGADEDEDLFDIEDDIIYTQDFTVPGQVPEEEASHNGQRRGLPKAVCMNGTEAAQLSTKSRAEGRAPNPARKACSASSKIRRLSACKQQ

[11] = target: T11, LTK (Homo sapiens, UniProt P29376); details: 100 nM, read-out: Percent Control
T11 construct: purchased DiscoveRx KINOMEscan (TRKA and CSF1R IC50 enzymes from Invitrogen)

[12] = target: T12, LYN (Homo sapiens, UniProt P07948); details: 100 nM
T12 construct: purchased DiscoveRx KINOMEscan (TRKA and CSF1R IC50 enzymes from Invitrogen)
T12 sequence (P07948 whole entry): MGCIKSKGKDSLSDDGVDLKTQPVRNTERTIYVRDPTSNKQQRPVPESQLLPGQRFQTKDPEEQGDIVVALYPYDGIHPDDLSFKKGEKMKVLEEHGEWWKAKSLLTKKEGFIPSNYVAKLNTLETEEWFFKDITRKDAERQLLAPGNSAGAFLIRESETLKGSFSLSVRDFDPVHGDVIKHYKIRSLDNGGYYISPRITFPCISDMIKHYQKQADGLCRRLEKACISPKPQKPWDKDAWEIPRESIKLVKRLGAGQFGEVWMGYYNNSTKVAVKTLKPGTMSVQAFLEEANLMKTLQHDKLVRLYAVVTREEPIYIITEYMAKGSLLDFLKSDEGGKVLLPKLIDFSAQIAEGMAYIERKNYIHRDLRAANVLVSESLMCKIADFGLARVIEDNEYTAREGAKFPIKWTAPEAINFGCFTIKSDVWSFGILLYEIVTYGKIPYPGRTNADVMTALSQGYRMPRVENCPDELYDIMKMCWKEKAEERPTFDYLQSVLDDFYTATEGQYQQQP

[13] = target: T13, MLK2 (Homo sapiens, UniProt Q02779); details: MLK2, 100 nM; read-out: Percent Control
T13 construct: purchased DiscoveRx KINOMEscan (TRKA and CSF1R IC50 enzymes from Invitrogen)

[14] = target: T14, NEK2 (Homo sapiens, UniProt P51955); details: NEK2, 100 nM; read-out: Percent Control
T14 construct: purchased DiscoveRx KINOMEscan (TRKA and CSF1R IC50 enzymes from Invitrogen)
T14 sequence (P51955 whole entry): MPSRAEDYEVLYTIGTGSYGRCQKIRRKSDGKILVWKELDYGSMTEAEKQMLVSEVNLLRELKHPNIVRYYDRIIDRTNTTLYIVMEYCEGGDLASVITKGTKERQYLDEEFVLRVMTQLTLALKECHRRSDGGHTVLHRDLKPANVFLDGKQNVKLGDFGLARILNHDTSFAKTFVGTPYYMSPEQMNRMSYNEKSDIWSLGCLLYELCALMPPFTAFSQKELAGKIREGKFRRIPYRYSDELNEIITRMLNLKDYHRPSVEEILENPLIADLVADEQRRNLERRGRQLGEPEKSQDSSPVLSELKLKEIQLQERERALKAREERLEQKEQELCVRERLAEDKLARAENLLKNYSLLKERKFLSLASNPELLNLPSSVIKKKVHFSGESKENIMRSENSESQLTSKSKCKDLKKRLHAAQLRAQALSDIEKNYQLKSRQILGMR

[15] = target: T15, PAK1 (Homo sapiens, UniProt Q13153); details: PAK1, 100 nM; read-out: Percent Control
T15 construct: purchased DiscoveRx KINOMEscan (TRKA and CSF1R IC50 enzymes from Invitrogen)
T15 sequence (Q13153 whole entry): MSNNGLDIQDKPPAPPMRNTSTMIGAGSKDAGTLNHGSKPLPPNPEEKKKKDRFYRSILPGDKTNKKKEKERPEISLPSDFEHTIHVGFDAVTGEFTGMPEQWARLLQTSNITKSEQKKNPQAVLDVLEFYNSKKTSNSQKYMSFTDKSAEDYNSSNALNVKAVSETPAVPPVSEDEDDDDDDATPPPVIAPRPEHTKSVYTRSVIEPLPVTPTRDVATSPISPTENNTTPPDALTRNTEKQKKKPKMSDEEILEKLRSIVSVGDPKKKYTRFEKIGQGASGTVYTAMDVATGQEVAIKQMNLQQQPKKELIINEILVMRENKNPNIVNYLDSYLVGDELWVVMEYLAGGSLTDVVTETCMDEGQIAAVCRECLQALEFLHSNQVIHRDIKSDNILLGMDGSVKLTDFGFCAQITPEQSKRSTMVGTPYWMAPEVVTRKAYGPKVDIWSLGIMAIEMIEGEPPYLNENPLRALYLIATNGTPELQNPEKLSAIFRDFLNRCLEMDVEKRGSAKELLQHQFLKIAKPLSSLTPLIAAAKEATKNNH

[16] = target: T16, PDPK1 (Homo sapiens, UniProt O15530); details: PDPK1, 100 nM; read-out: Percent Control
T16 construct: purchased DiscoveRx KINOMEscan (TRKA and CSF1R IC50 enzymes from Invitrogen)

[17] = target: T17, PIK3C2B (Homo sapiens, UniProt O00750); details: 100 nM, read-out: Percent Control
T17 construct: purchased DiscoveRx KINOMEscan (TRKA and CSF1R IC50 enzymes from Invitrogen)

[18] = target: T18, PIM2 (Homo sapiens, UniProt Q9P1W9); details: PIM2, 100 nM; read-out: Percent Control
T18 construct: purchased DiscoveRx KINOMEscan (TRKA and CSF1R IC50 enzymes from Invitrogen)

[19] = target: T19, PYK2 (Homo sapiens, UniProt Q14289); details: PYK2, 100 nM; read-out: Percent Control
T19 construct: purchased DiscoveRx KINOMEscan (TRKA and CSF1R IC50 enzymes from Invitrogen)

[20] = target: T20, TXK (Homo sapiens, UniProt P42681); details: 100 nM, read-out: Percent Control
T20 construct: purchased DiscoverX (outsourced KINOMEscan)

[21] = target: T21, WNK1 (Homo sapiens, UniProt Q9H4A3); details: WNK1, 100 nM; read-out: Percent Control
T21 construct: purchased DiscoverX (outsourced KINOMEscan)

## CC(C)(C)c1cc(NC(=O)Cc2ccc(-n3cnc4cc(-c5ccc(S(C)(=O)=O)cc5)ccc43)cc2)no1 [NPA101.3]
[1]
  remaining binding at 0.1 µM: 49%
[2]
  remaining binding at 0.1 µM: 56%
[3]
  remaining binding at 0.1 µM: 100%
[4]
  remaining binding at 0.1 µM: 86%
[5]
  remaining binding at 0.1 µM: 100%
[6]
  binding (% bound): > 90 % bound
[6]; HCK, read-out: Percent Control
  remaining binding at 0.1 µM: 6.5%
[7]
  remaining binding at 0.1 µM: 100%
[8]
  remaining binding at 0.1 µM: 100%
[9]
  remaining binding at 0.1 µM: 78%
[10]
  remaining binding at 0.1 µM: 81%
[11]
  remaining binding at 0.1 µM: 61%
[12]
  binding (% bound): > 90 % bound
[12]; LYN, read-out: Percent Control
  remaining binding at 0.1 µM: 2.8%
[13]
  remaining binding at 0.1 µM: 100%
[14]
  remaining binding at 0.1 µM: 100%
[15]
  remaining binding at 0.1 µM: 100%
[16]
  remaining binding at 0.1 µM: 96%
[17]
  remaining binding at 0.1 µM: 100%
[18]
  remaining binding at 0.1 µM: 94%
[19]
  remaining binding at 0.1 µM: 95%
[20]
  remaining binding at 0.1 µM: 85%
[21]
  remaining binding at 0.1 µM: 93%
